MIC data for one molecule are collected here from ChEMBL document CHEMBL3882388, “Pharmaceutical Compositions Comprising Beta-Lactam Antibiotic, Sulbactam and Beta-Lactamase Inhibitor” (2014).

Assay [1] relates to Acinetobacter baumannii. Nature of the assay: Antibacterial activity against extended-spectrum b-lactamase producing Acinetobacter baumannii NCTC 13301 incubated for 16 to 20 hrs by CLSI method. It counts as functional.
The subject of assay [2] is Acinetobacter baumannii. In words: Antibacterial activity against extended-spectrum b-lactamase producing Acinetobacter baumannii NCTC 13304 incubated for 16 to 20 hrs by CLSI method. The class given is functional.
Assay [3] relates to Acinetobacter baumannii. Nature of the assay: Antibacterial activity against extended-spectrum b-lactamase producing Acinetobacter baumannii NCTC 13305 incubated for 16 to 20 hrs by CLSI method. It counts as functional.
The subject of assay [4] is Acinetobacter baumannii. In words: Antibacterial activity against extended-spectrum b-lactamase producing Acinetobacter baumannii S-3 incubated for 16 to 20 hrs by CLSI method. The class given is functional.
Assay [5] deals with Beta-lactamase (Acinetobacter baumannii) (UniProt Q8RLA6). Nature of the assay: Inhibition of beta-lactamase in extended-spectrum b-lactamase producing Acinetobacter baumannii S-3 assessed as potentiation of cefepime-induced antibacterial activity by measuring cefepime MIC at 4 to 8 ug/ml incubated for 16 to 20 hrs by CLSI method.
Beta-lactamase (Acinetobacter baumannii), sequence (Q8RLA6 as listed by the source): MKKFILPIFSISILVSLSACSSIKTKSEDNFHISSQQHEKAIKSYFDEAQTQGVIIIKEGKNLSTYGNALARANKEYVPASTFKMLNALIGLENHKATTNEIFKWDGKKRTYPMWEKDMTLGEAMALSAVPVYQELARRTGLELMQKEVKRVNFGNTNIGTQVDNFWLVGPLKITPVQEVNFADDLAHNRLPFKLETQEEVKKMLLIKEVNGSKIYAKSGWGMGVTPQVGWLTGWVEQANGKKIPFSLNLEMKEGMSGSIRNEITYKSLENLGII
Assay [6] deals with Acinetobacter baumannii. Nature of the assay: Antibacterial activity against extended-spectrum b-lactamase producing Acinetobacter baumannii S-4 incubated for 16 to 20 hrs by CLSI method. The class given is functional.
Assay [7] deals with Beta-lactamase (Acinetobacter baumannii) (UniProt Q8RLA6). In words: Inhibition of beta-lactamase in extended-spectrum b-lactamase producing Acinetobacter baumannii S-4 assessed as potentiation of cefepime-induced antibacterial activity by measuring cefepime MIC at 4 to 8 ug/ml incubated for 16 to 20 hrs by CLSI method.
Assay [8] concerns Acinetobacter baumannii. Nature of the assay: Antibacterial activity against extended-spectrum b-lactamase producing Acinetobacter baumannii S-8 incubated for 16 to 20 hrs by CLSI method. It counts as functional.
In assay [9] the target is Beta-lactamase (Acinetobacter baumannii) (UniProt Q8RLA6). In words: Inhibition of beta-lactamase in extended-spectrum b-lactamase producing Acinetobacter baumannii NCTC 13301 assessed as potentiation of cefpirome-induced antibacterial activity by measuring cefpirome MIC at 4 to 8 ug/ml incubated for 16 to 20 hrs by CLSI method.
The target is the same in assay [10]. The conditions noted are these: NCTC 13301.
Assay [11] shares this target. Particulars: NCTC 13304.
The target is the same in assay [12]. Particulars: NCTC 13305.
The target is the same in assay [13]. Particulars: NCTC 13305. The source holds these as a separate data set.
The target is the same in assay [14]. Particulars: S-3.
Assay [15] shares this target. Particulars: S-4.
Assay [16] has the same target. Particulars: S-8.
For assay [17] the target is unchanged. Particulars: NCTC 13301. The source holds these as a separate data set.
Assay [18] shares this target. The conditions noted are these: NCTC 13301. The source holds these as a separate data set.
Assay [19] has the same target. Particulars: NCTC 13304. The source holds these as a separate data set.
Assay [20] has the same target. The conditions noted are these: S-10.
Assay [21] has the same target. The conditions noted are these: S-10. The source holds these as a separate data set.
The target is the same in assay [22]. Particulars: S-15.

Converted amounts (≈) assume the structure as drawn.

As for `NC(=O)[C@@H]1CC[C@@H]2CN1C(=O)N2OS(=O)(=O)O`, the MIC was more than 64 µg/mL in assay [1]; more than 64 µg/mL in [2]; more than 64 µg/mL in assay [3]; more than 64 µg/mL in [4]; 32 µg/mL in [5]; more than 64 µg/mL in assay [6]. For the same molecule, the MIC in assay [7] is 32 µg/mL; in assay [8], more than 64 µg/mL; in assay [9], more than 32 µg/mL; in assay [10], less than 0.06 µg/mL; in [11], less than 0.06 µg/mL; in assay [12] it was less than 0.06 µg/mL. Besides, the MIC in [13] is less than 0.06 µg/mL; in assay [14] it was 0.5 µg/mL (≈ 1.89 µM); in assay [15] it was 1 µg/mL (≈ 3.77 µM); in assay [16], 0.5 µg/mL (≈ 1.89 µM); in [17] it was less than 0.06 µg/mL; in [18], less than 0.06 µg/mL. Further, the MIC is less than 0.06 µg/mL in assay [19], less than 0.03 µg/mL in assay [20], less than 0.03 µg/mL in assay [21] and 8 µg/mL (≈ 30.2 µM) in assay [22].
